Laboratory results published in patent US20250092039A1, “GLUTARIMIDE-CONTAINING PAN-KRAS-MUTANT DEGRADER COMPOUNDS AND USES THEREOF” (Tiger Biotherapeutics Inc., priority 2022, published 2025).
Where two headings read alike, the source gives them in different places.

Key:
[1] = biological target: KRAS-G12V/RAF1 (Homo sapiens (Human), UniProt P01116, G12V); assay: KRAS/RAF1 binding inhibition assay (AlphaScreen)
Summary of the method: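 Binding of GppNHp-loaded KRAS G12V to the RAF1 RBD was measured by AlphaScreen with test compound present in 2% DMSO (final), 60 min incubation at 4° C. Signals were converted to % inhibition versus DMSO, and IC50 was obtained by variable-slope nonlinear regression.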

[2] = biological target: KRAS G12V (Homo sapiens (Human), UniProt P01116, G12V); assay: KRAS G12V degradation in SW620 cells (Western blot, DC50); format: cell-based; conditions: 24 hours
Chain of KRAS G12V (P01116-2 other isoform, or with tags, fused parts or gaps G12V): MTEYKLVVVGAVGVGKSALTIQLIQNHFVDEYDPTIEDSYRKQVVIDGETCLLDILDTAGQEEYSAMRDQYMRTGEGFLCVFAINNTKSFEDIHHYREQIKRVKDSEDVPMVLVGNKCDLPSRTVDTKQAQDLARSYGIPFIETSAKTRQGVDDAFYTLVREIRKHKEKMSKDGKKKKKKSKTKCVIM
Summary of the method: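 SW620 cells (homozygous KRAS G12V) were treated with compound for 24 hours at 37° C. KRAS in lysates was measured by Western blot with fluorescent secondary antibodies and expressed relative to DMSO vehicle (100%). DC50 came from a four-parameter variable-slope dose-response fit.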

[3] = test system: SW620 cells; assay: 3D cell growth inhibition of SW620 cells carrying endogenous KRAS G12V mutation (CellTiter-Glo 3D, GI50); format: cell-based; conditions: Homo sapiens, SW-620, 144 h, read-out: SW620 3D cell growth GI50
Summary of the method: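 SW620 cells (endogenous KRAS G12V) grown in 3D were dosed next day with compound from DMSO stocks at various concentrations, then incubated 6 days at 37° C.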

Chain of KRAS-G12V/RAF1 (P01116-2 other isoform, or with tags, fused parts or gaps G12V): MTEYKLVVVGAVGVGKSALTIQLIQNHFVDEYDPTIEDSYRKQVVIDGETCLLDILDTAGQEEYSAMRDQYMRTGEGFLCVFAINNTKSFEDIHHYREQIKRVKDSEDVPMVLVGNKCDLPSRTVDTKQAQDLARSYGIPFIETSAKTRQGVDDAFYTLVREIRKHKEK

Q: For CCc1cccc2cc(O)cc(-c3ncc4c(N5CCC[C@@](C)(O)C5)nc(OCC5(CN6CCC7(CC6)CC(CN6CCN(c8ccc9c(c8)C(=O)N(C8CCC(=O)NC8=O)C9=O)CC6)C7)CC5)nc4c3F)c12 (stereo partly drawn) [Compound 32, 2-(2,6-dioxopiperidin-3-yl)-5-(4-((7-((1-(((7-(8-ethyl-3-hydroxynaphthalen-1-yl)-8-fluoro-4-((R)-3-hydroxy-3-methylpiperidin-1-yl)pyrido[4,3-d]pyrimidin-2-yl)oxy)methyl)cyclopropyl)methyl)-7-azaspiro[3.5]nonan-2-yl)methyl)piperazin-1-yl)isoindoline-1,3-dione], which IC50 [1] is on record?
A: The IC50 was 0.02 to 0.2 µM.

Q: What about the DC50 [2] of the same compound?
A: The DC50 was 0.001 to 0.01 µM.

Q: And the GI50 ([3]; SW620 cells, 6 days)?
A: Its GI50 is less than 0.01 µM.

Q: Which IC50 [1] does the source give for CCc1cccc2cc(O)cc(-c3ncc4c(N(C)C5CC5)nc(OCC5(CN6CCC(CN7CCN(c8ccc9c(c8)CN([C@H]8CCC(=O)NC8=O)C9=O)CC7)CC6)CC5)nc4c3F)c12 [Compound 15, (S)-3-(5-(4-((1-((1-(((4-(cyclopropyl(methyl)amino)-7-(8-ethyl-3-hydroxynaphthalen-1-yl)-8-fluoropyrido[4,3-d]pyrimidin-2-yl)oxy)methyl)cyclopropyl)methyl)piperidin-4-yl)methyl)piperazin-1-yl)-1-oxoisoindolin-2-yl)piperidine-2,6-dione] here?
A: The IC50 was greater than 0.2 µM.

Q: What about the DC50 [2] of the same compound?
A: Its DC50 is greater than 0.1 µM.

Q: And the GI50 ([3]; SW620 cells, 6 days)?
A: Its GI50 is greater than 0.1 µM.

Q: How did the IC50 [1] turn out when CCc1c(F)ccc2cc(O)cc(-c3ncc4c(N5CCC[C@]6(CCO6)C5)nc(OCC5(CN6CCC7(CC6)CC(N6CCN(c8ccc9c(c8)CN([C@H]8CCC(=O)NC8=O)C9=O)CC6)C7)CC5)nc4c3F)c12 [Compound 218, (S)-3-(5-(4-(7-((1-(((7-(8-ethyl-7-fluoro-3-hydroxynaphthalen-1-yl)-8-fluoro-4-((S)-1-oxa-6-azaspiro[3.5]nonan-6-yl)pyrido[4,3-d]pyrimidin-2-yl)oxy)methyl)cyclopropyl)methyl)-7-azaspiro[3.5]nonan-2-yl)piperazin-1-yl)-1-oxoisoindolin-2-yl)piperidine-2,6-dione] was run?
A: The IC50 was 0.02 to 0.2 µM.

Q: And the DC50 [2]?
A: The DC50 was less than 0.001 µM.

Q: What about the GI50 ([3]; SW620 cells, 6 days) of the same compound?
A: The GI50 was less than 0.01 µM.

Q: With CCc1c(F)ccc2cc(O)cc(-c3ncc4c(N5CCC[C@@](C)(O)C5)nc(OCC5(CN6CCC(N7CCC8(CC7)CN(c7ccc9c(c7)CN(C7CCC(=O)NC7=O)C9=O)C8)CC6)CC5)nc4c3F)c12 (stereo partly drawn) [Compound 151, 3-(5-(7-(1-((1-(((7-(8-ethyl-7-fluoro-3-hydroxynaphthalen-1-yl)-8-fluoro-4-((R)-3-hydroxy-3-methylpiperidin-1-yl)pyrido[4,3-d]pyrimidin-2-yl)oxy)methyl)cyclopropyl)methyl)piperidin-4-yl)-2,7-diazaspiro[3.5]nonan-2-yl)-1-oxoisoindolin-2-yl)piperidine-2,6-dione] as the compound, how does the IC50 [1] read?
A: Its IC50 is 0.02 to 0.2 µM.

Q: And the DC50 [2]?
A: The DC50 was less than 0.001 µM.

Q: What about the GI50 ([3]; SW620 cells, 6 days) of the same compound?
A: The GI50 was less than 0.01 µM.

Q: What does the source list for CCc1c(F)ccc2cc(O)cc(-c3ncc4c(N5CCC[C@@](C)(O)C5)nc(OCC5(CN6CCC7(CC6)CCN(C6CN(c8ccc9c(c8)CN(C8CCC(=O)NC8=O)C9=O)C6)CC7)CC5)nc4c3F)c12 (stereo partly drawn) [Compound 164, 3-(5-(3-(9-((1-(((7-(8-ethyl-7-fluoro-3-hydroxynaphthalen-1-yl)-8-fluoro-4-((R)-3-hydroxy-3-methylpiperidin-1-yl)pyrido[4,3-d]pyrimidin-2-yl)oxy)methyl)cyclopropyl)methyl)-3,9-diazaspiro[5.5]undecan-3-yl)azetidin-1-yl)-1-oxoisoindolin-2-yl)piperidine-2,6-dione]?
A: IC50 [1]: 0.02 to 0.2 µM; DC50 [2]: 0.001 to 0.01 µM; GI50 ([3]; SW620 cells, 6 days): < 0.01 µM

Q: What does the source list for Cc1nc(N)cc(-c2ncc3c(N4CCC[C@@](C)(O)C4)nc(OCC4(CN5CCC6(CC5)CC(CN5CCN(c7ccc8c(c7)CN([C@H]7CCC(=O)NC7=O)C8=O)CC5)C6)CC4)nc3c2F)c1C(F)(F)F [Compound 26, (S)-3-(5-(4-((7-((1-(((7-(6-amino-2-methyl-3-(trifluoromethyl)pyridin-4-yl)-8-fluoro-4-((R)-3-hydroxy-3-methylpiperidin-1-yl)pyrido[4,3-d]pyrimidin-2-yl)oxy)methyl)cyclopropyl)methyl)-7-azaspiro[3.5]nonan-2-yl)methyl)piperazin-1-yl)-1-oxoisoindolin-2-yl)piperidine-2,6-dione]?
A: IC50 [1]: > 0.2 µM; DC50 [2]: > 0.1 µM; GI50 ([3]; SW620 cells, 6 days): > 0.1 µM

Q: Which results are given for CCc1c(F)ccc2cc(O)cc(-c3ncc4c(N5CCC[C@@](C)(O)C5)nc(OCC5(CN6CC(N7CC(N8CCN(c9ccc%10c(c9)CN([C@H]9CCC(=O)NC9=O)C%10=O)CC8)C7)C6)CC5)nc4c3F)c12 [Compound 137, (S)-3-(5-(4-(1′-((1-(((7-(8-ethyl-7-fluoro-3-hydroxynaphthalen-1-yl)-8-fluoro-4-((R)-3-hydroxy-3-methylpiperidin-1-yl)pyrido[4,3-d]pyrimidin-2-yl)oxy)methyl)cyclopropyl)methyl)-[1,3′-biazetidin]-3-yl)piperazin-1-yl)-1-oxoisoindolin-2-yl)piperidine-2,6-dione]?
A: IC50 [1]: 0.02 to 0.2 µM; DC50 [2]: 0.001 to 0.01 µM; GI50 ([3]; SW620 cells, 6 days): < 0.01 µM

Q: How did the IC50 [1] turn out when CCc1c(F)ccc2cc(O)cc(-c3ncc4c(N5CCOCC(C)(O)C5)nc(OCC5(CN6CCC7(CC6)CC(CN6CCN(c8ccc9c(c8)CN([C@H]8CCC(=O)NC8=O)C9=O)CC6)C7)CC5)nc4c3F)c12 (mixture of isomers) [Compound 91, (3S)-3-(5-(4-((7-((1-(((7-(8-ethyl-7-fluoro-3-hydroxynaphthalen-1-yl)-8-fluoro-4-(6-hydroxy-6-methyl-1,4-oxazepan-4-yl)pyrido[4,3-d]pyrimidin-2-yl)oxy)methyl)cyclopropyl)methyl)-7-azaspiro[3.5]nonan-2-yl)methyl)piperazin-1-yl)-1-oxoisoindolin-2-yl)piperidine-2,6-dione] was run?
A: Its IC50 is 0.02 to 0.2 µM.

Q: What about the DC50 [2] of the same compound?
A: The DC50 was 0.001 to 0.01 µM.

Q: And the GI50 [3]?
A: Its GI50 is less than 0.01 µM.

Q: What does the source list for CCc1c(F)ccc2cc(O)cc(-c3ncc4c(N5CCC[C@@](C)(O)C5)nc(OCC5(CN6CC7(CCC(CN8CCN(c9ccc%10c(c9)CN([C@H]9CCC(=O)NC9=O)C%10=O)CC8)CC7)C6)CC5)nc4c3F)c12 [Compound 126, (3S)-3-[5-[4-[[2-[[1-[[7-(8-ethyl-7-fluoro-3-hydroxy-1-naphthyl)-8-fluoro-4-[(3R)-3-hydroxy-3-methyl-1-piperidyl]pyrido[4,3-d]pyrimidin-2-yl]oxymethyl]cyclopropyl]methyl]-2-azaspiro[3.5]nonan-7-yl]methyl]piperazin-1-yl]-1-oxo-isoindolin-2-yl]piperidine-2,6-dione]?
A: IC50 [1]: 0.02 to 0.2 µM; DC50 [2]: 0.001 to 0.01 µM; GI50 ([3]; SW620 cells, 6 days): < 0.01 µM

Q: How did the IC50 [1] turn out when CCc1cccc2cc(O)cc(-c3ncc4c(N5CCC[C@@](C)(O)C5)nc(OCC5(CN6CCC7(CC6)CC(CN6CCN(c8ccc9c(c8)CN([C@H]8CCC(=O)NC8=O)C9=O)CC6)C7)CC5)nc4c3F)c12 [Compound 87, (S)-3-(5-(4-((7-((1-(((7-(8-ethyl-3-hydroxynaphthalen-1-yl)-8-fluoro-4-((R)-3-hydroxy-3-methylpiperidin-1-yl)pyrido[4,3-d]pyrimidin-2-yl)oxy)methyl)cyclopropyl)methyl)-7-azaspiro[3.5]nonan-2-yl)methyl)piperazin-1-yl)-1-oxoisoindolin-2-yl)piperidine-2,6-dione] was run?
A: Its IC50 is 0.02 to 0.2 µM.

Q: What about the DC50 [2] of the same compound?
A: The DC50 was 0.001 to 0.01 µM.

Q: And the GI50 [3]?
A: Its GI50 is less than 0.01 µM.

Q: CCc1c(F)ccc2cc(O)cc(-c3ncc4c(N5CCOCC6(CCO6)C5)nc(OCC5(CN6CCC7(CC6)CC(CN6CCN(c8ccc9c(c8)CN([C@H]8CCC(=O)NC8=O)C9=O)CC6)C7)CC5)nc4c3F)c12 (stereo partly drawn) [Compound 124, (3S)-3-(5-(4-((7-((1-(((7-(8-ethyl-7-fluoro-3-hydroxynaphthalen-1-yl)-8-fluoro-4-(1,6-dioxa-9-azaspiro[3.6]decan-9-yl)pyrido[4,3-d]pyrimidin-2-yl)oxy)methyl)cyclopropyl)methyl)-7-azaspiro[3.5]nonan-2-yl)methyl)piperazin-1-yl)-1-oxoisoindolin-2-yl)piperidine-2,6-dione] was tested. Which IC50 [1] did it give?
A: The IC50 was 0.02 to 0.2 µM.

Q: And the DC50 [2]?
A: The DC50 was 0.001 to 0.01 µM.

Q: What about the GI50 ([3]; SW620 cells, 6 days) of the same compound?
A: Its GI50 is less than 0.01 µM.

Q: With CCc1c(F)ccc2cc(O)cc(-c3ncc4c(N5CCC[C@@](C)(O)C5)nc(OCC5(CN6CC(N7CCC(N8CCN(c9ccc%10c(c9)CN([C@H]9CCC(=O)NC9=O)C%10=O)CC8)CC7)C6)CC5)nc4c3F)c12 [Compound 139, (S)-3-(5-(4-(1-(1-((1-(((7-(8-ethyl-7-fluoro-3-hydroxynaphthalen-1-yl)-8-fluoro-4-((R)-3-hydroxy-3-methylpiperidin-1-yl)pyrido[4,3-d]pyrimidin-2-yl)oxy)methyl)cyclopropyl)methyl)azetidin-3-yl)piperidin-4-yl)piperazin-1-yl)-1-oxoisoindolin-2-yl)piperidine-2,6-dione] as the compound, how does the IC50 [1] read?
A: Its IC50 is less than 0.02 µM.

Q: What about the DC50 [2] of the same compound?
A: The DC50 was less than 0.001 µM.

Q: What about the GI50 ([3]; SW620 cells, 6 days) of the same compound?
A: Its GI50 is less than 0.01 µM.

Q: For CCc1c(F)ccc2cc(O)cc(-c3ncc4c(N5CCC[C@@](C)(O)C5)nc(OCC5(CN6CC7(CCC(N8CCN(c9ccc%10c(c9)CN([C@H]9CCC(=O)NC9=O)C%10=O)CC8)CC7)C6)CC5)nc4c3F)c12 [Compound 136, (S)-3-(5-(4-(2-((1-(((7-(8-ethyl-7-fluoro-3-hydroxynaphthalen-1-yl)-8-fluoro-4-((R)-3-hydroxy-3-methylpiperidin-1-yl)pyrido[4,3-d]pyrimidin-2-yl)oxy)methyl)cyclopropyl)methyl)-2-azaspiro[3.5]nonan-7-yl)piperazin-1-yl)-1-oxoisoindolin-2-yl)piperidine-2,6-dione], which IC50 [1] is on record?
A: Its IC50 is less than 0.02 µM.

Q: What about the DC50 [2] of the same compound?
A: Its DC50 is less than 0.001 µM.

Q: What about the GI50 ([3]; SW620 cells, 6 days) of the same compound?
A: Its GI50 is 0.01 to 0.1 µM.
